Source: US9371305B2, “Deuterated benzopyran compounds and application thereof” (Guangzhou Institutes of Biomedicine And Health, Chinese …, priority 2012, dated 2016)
Where two headings read alike, the source gives them in different places.

Columns and labels:
[1] = Test on pharmacokinetics and bioavailability of rats; assay type: in vivo, SD rats; conditions: for Vd / BA / AUC / Cmax / Tmax / half-life / t½: male SD rats; for BA: oral, calculated according AUC data; for AUC / Cmax / Tmax / half-life / t½: oral administration; for half-life: read-out: t½ (converted)
Description: The blood samples employ acetonitrile to precipitate protein, 16000 rpm*30 min, and the supernatant is used for LC/MS analysis. Data is performed with parameter fitting by DAS2.0, and the bioavailability of oral administration of compounds is calculated according AUC data.

human recombinant COX-2 = biological target: T1, human recombinant COX-2 (Homo sapiens, UniProt P35354); assay: COX-2 enzyme inhibition (ADHP fluorescence); assay type: biochemical; conditions: for IC50: human recombinant COX-2, 15 min incubation
T1 sequence (P35354 18-604): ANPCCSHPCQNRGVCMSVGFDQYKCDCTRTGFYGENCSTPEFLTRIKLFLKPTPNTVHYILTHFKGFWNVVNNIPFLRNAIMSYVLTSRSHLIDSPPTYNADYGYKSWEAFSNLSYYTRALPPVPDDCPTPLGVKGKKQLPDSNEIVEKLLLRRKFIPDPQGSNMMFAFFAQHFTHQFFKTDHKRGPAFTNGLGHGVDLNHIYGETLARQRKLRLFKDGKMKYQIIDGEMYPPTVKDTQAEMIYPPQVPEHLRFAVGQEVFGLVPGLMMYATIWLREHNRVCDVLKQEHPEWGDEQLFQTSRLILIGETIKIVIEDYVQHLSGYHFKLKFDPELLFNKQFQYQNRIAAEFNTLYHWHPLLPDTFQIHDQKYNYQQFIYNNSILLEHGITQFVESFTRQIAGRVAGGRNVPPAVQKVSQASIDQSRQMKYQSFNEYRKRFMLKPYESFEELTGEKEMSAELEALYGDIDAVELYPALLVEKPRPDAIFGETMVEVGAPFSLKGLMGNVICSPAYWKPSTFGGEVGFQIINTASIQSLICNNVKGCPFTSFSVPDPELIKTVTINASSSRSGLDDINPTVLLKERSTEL
Description: (§1) Deuterated benzopyran compounds of different concentrations were uniformly mixed with ovine COX-1 and human recombinant COX-2 for incubation for 15 min, respectively, and then the system was added with Heme and ADHP for incubation for another 2 min and finally added with substrate arachidonic acid. The light emission intensity of the reaction product at 595 nm was immediately detected by a microplate reader under exciting light at 530 nm. […] In the whole blood assay, venous blood of healthy donors was collected with a non-anticoagulation tube and a heparin tube, deuterated benzopyran compounds of different concentrations (1×10^−8 to 1×10^−4) were mixed with the blood in the non-anticoagulation tube, the supernatant was collected after the blood was coagulated and then measured by ELISA in terms of the yield of TXB2; and deuterated benzopyran compounds of different concentrations (1×10^−8 to 1×10^−4) were mixed with the blood in the heparin tube, the mixture was added with lipopolysaccharide until the final concentration was 100 μg/mL, mixed uniformly and then kept stand overnight at 37° C., the supernatant was collected by centrifugation and then measured by ELISA in terms of the yield of PGE2.

ovine COX-1 = biological target: T2, ovine COX-1 (Ovis aries, UniProt P05979); assay: COX-1 enzyme inhibition (ADHP fluorescence); assay type: biochemical
T2 sequence (P05979 25-600): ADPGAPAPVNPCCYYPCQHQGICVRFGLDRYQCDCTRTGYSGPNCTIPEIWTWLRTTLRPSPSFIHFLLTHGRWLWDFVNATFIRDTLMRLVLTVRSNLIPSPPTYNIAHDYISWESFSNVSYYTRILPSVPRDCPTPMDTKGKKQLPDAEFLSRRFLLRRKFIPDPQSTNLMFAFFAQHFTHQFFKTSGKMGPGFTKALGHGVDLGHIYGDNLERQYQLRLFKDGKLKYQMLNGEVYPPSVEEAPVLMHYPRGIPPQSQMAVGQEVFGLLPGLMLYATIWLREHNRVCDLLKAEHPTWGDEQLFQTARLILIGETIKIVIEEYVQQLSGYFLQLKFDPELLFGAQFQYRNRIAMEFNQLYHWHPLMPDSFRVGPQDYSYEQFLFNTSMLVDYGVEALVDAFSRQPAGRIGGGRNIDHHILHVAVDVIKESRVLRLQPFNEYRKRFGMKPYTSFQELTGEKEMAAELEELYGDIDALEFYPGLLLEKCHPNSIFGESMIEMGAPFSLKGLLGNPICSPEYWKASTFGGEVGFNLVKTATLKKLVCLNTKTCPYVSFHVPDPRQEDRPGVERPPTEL
Description: as §1, with “PGE2. […]” for “PGE2.”

[2] = system: generation of TXB2 in the whole blood; assay: whole blood assay, yield of TXB2 in coagulated blood (ELISA); assay type: cell-based; conditions: Homo sapiens, read-out: inhibition IC50 onto generation of TXB2 in the whole blood test
Description: as §1, with “PGE2. […]” for “PGE2.”

[3] = system: generation of PGE2 in the whole blood; assay: whole blood assay, lipopolysaccharide-induced yield of PGE2 in heparin blood (ELISA); assay type: cell-based, human; conditions: for IC50: Homo sapiens, read-out: inhibition IC50 onto generation of PGE2 in the whole blood test
Description: as §1

[4] = rat, plasma, single dose 2.5 mg/kg
[5] = rat, plasma, single dose 2.5 mg/kg, read-out: Cmax
[6] = rat, plasma, single dose 2.5 mg/kg, read-out: Tmax
[7] = ovine COX-1, 15 min incubation, read-out: Inhibition IC50 COX-1
[8] = rat, plasma, single dose 25 mg/kg
[9] = rat, plasma, single dose 25 mg/kg, read-out: Cmax
[10] = rat, plasma, single dose 25 mg/kg, read-out: Tmax
[11] = blood of healthy donors, non-anticoagulation tube
[12] = blood of healthy donors, heparin tube, lipopolysaccharide 100 μg/mL, overnight at 37° C.
[13] = rat, plasma, single dose 10 mg/kg

Vd ([1]; single dose 10 mg/kg) [L/kg] | Cmax ([1]; single dose 10 mg/kg) [ng/mL] | Tmax ([1]; single dose 10 mg/kg) [min] | t½ ([1]; single dose 10 mg/kg) [h] | BA ([1]; single dose 10 mg/kg) [%] | AUC [1, 13] [ng·h/mL] | Compound | Vd ([1]; single dose 2.5 mg/kg) [L/kg] | BA ([1]; single dose 2.5 mg/kg) [%] | AUC [1, 4] [ng·h/mL] | Cmax [1, 5] [ng/mL] | Tmax [1, 6] [min] | half-life [1, 4] [min] | IC50 (human recombinant COX-2) [nM] | IC50 (ovine COX-1; [7]) [µM] | IC50 [2] [µM] | IC50 [3] [µM] | IC50 [2, 11] [µM] | IC50 [3, 12] [µM] | other results
– | – | – | – | – | – | [2H]C([2H])([2H])c1c(Br)c2c(c(C([2H])([2H])[2H])c1Br)C=C(C(=O)O)C(C(F)(F)F)O2 (stereo not drawn) [GIBH-1051, 6,8-dibromo-5,7-(dimethyl-D6)-2-(trifluoromethyl)-2H-chromene-3-carboxylic acid] | 1.004 | 63.7 | 13000 | 4480 | 41.3 | 106 | 84.1 | 5.45 | 70.6 | > 100 | – | – | –
– | – | – | – | – | – | [2H]C([2H])([2H])C([2H])([2H])c1cc(OC(F)(F)F)cc2c1OC(C(F)(F)F)C(C(=O)O)=C2 (stereo not drawn) [GIBH-1006, 8-(ethyl-D5)-6-(trifluoromethoxy)-2-(trifluoromethyl)-2H-chromene-3-carboxylic acid] | – | – | – | – | – | – | – | > 100 | – | – | 20.5 | 79.5 | Vd ([1]; single dose 25 mg/kg): 0.68 L/kg; BA ([1]; single dose 25 mg/kg): 78.6%; AUC value compared among the compounds (in words) ([1]; rat PK, doses differ between compounds): highest; AUC [1, 8]: 511000 ng·h/mL; Cmax [1, 9]: 29500 ng/mL; Tmax [1, 10]: 97.5 min; half-life [1, 8]: 572 min
– | – | – | – | – | – | [2H]C([2H])([2H])c1cc2c(c(C([2H])([2H])[2H])c1)OC(C(F)(F)F)C(C(=O)O)=C2 (stereo not drawn) [GIBH-1016, 6,8-(dimethyl-D6)-2-(trifluoromethyl)-2H-chromene-3-carboxylic acid] | 0.94 | 65.1 | 4330 | 4400 | 11.2 | 62.4 | – | – | > 100 | > 100 | – | – | IC50 (ovine COX-1): > 100 µM
0.26 | 20900 | 70.02 | 2.1 | 92.8 | 118000 | [2H]C([2H])([2H])c1cc2c(c(C([2H])([2H])[2H])c1Cl)C=C(C(=O)O)C(C(F)(F)F)O2 (stereo not drawn) [GIBH-1008, 6-chloro-5,7-(dimethyl-D6)-2-(trifluoromethyl)-2H-chromene-3-carboxylic acid] | – | – | – | – | – | – | – | > 100 | – | – | 65.1 | 78.5 | IC50 (ovine COX-1; read-out: IC50 value of COX-1): > 100 µM
– | – | – | – | – | – | [2H]C([2H])([2H])c1ccc2c(c1)C=C(C(=O)O)C(C(F)(F)F)O2 (stereo not drawn) [GIBH-1004, 6-(methyl-D3)-2-(trifluoromethyl)-2H-chromence-3-carboxylic acid] | – | – | – | – | – | – | – | > 100 | > 100 | 67.5 | – | – | Vd ([1]; single dose 25 mg/kg): 0.58 L/kg; BA ([1]; single dose 25 mg/kg): 46.1%; AUC [1, 8]: 181000 ng·h/mL; Cmax [1, 9]: 34200 ng/mL; Tmax [1, 10]: 33.8 min; half-life [1, 8]: 173 min
0.57 | 21399 | 30 | 3.35 | 111.8 | 84800 | [2H]C([2H])([2H])c1cc2c(c(C([2H])([2H])[2H])c1Br)C=C(C(=O)O)C(C(F)(F)F)O2 (stereo not drawn) [GIBH-1010, 6-bromo-5,7-(dimethyl-D6)-2-(trifluoromethyl)-2H-chromene-3-carboxylic acid] | – | – | – | – | – | – | 67.1 | > 100 | – | – | 38.9 | > 100 | –
– | – | – | – | – | – | [2H]C([2H])([2H])c1cc(Cl)cc2c1OC(C(F)(F)F)C(C(=O)O)=C2 (stereo not drawn) [GIBH-1012, 6-chloro-8-(methyl-D3)-2-(trifluoromethyl)-2H-chromene-3-carboxylic acid] | – | 110.7 | 38900 | – | – | – | – | > 100 | > 100 | > 100 | – | – | Cmax ([1]; single dose 2.5 mg/kg): 8945 ng/mL; Tmax ([1]; single dose 2.5 mg/kg): 30 min; t½ ([1]; single dose 2.5 mg/kg): 3.37 h
– | – | – | – | – | – | [2H]C([2H])([2H])c1cc(Cl)c2c(c1)C=C(C(=O)O)C(C(F)(F)F)O2 (stereo not drawn) [GIBH-1018, 8-chloro-6-(methyl-D3)-2-(trifluoromethyl)-2H-chromene-3-carboxylic acid] | 0.31 | 90.6 | 28300 | 11800 | 16.3 | 146 | – | > 100 | > 100 | 78.9 | – | – | –

Compound | Vd ([1]; single dose 10 mg/kg) [L/kg] | Cmax ([1]; single dose 10 mg/kg) [ng/mL] | Tmax ([1]; single dose 10 mg/kg) [min] | t½ ([1]; single dose 10 mg/kg) [h] | BA ([1]; single dose 10 mg/kg) [%] | AUC [1, 13] [ng·h/mL] | Vd ([1]; single dose 2.5 mg/kg) [L/kg] | BA ([1]; single dose 2.5 mg/kg) [%] | AUC [1, 4] [ng·h/mL] | Cmax [1, 5] [ng/mL] | Tmax [1, 6] [min] | half-life [1, 4] [min] | IC50 (human recombinant COX-2) [nM] | IC50 (ovine COX-1; [7]) [µM] | IC50 [2] [µM] | IC50 [3] [µM] | IC50 [2, 11] [µM] | IC50 [3, 12] [µM] | other results
[2H]C([2H])([2H])c1cc(Br)cc2c1OC(C(F)(F)F)C(C(=O)O)=C2 (stereo not drawn) [GIBH-1014, 6-bromo-8-(methyl-D3)-2-(trifluoromethyl)-2H-chromene-3-carboxylic acid] | 0.53 | 35300 | 25 | 5.2 | 107.4 | 143000 | – | – | – | – | – | – | 36.8 | 31.8 | > 100 | 45.2 | – | – | ratio of the selectivity to COX-2 to the selectivity to COX-1 (human recombinant COX-2; from enzyme IC50 values COX-1/COX-2): 862; selectivity to the inhibition of COX-2 enzyme of blood cells ([3]; human whole blood COX enzyme activity test): better selectivity
